Assay: Thermostability: quantitative determination of the cyclopentenone (UV absorbance near 215 nm) initially and after standing at 40° C. for six days
Assay type: physicochemical
Conditions: for Amount of the Cyclopentenone (%) After Standing at 40° C. for six days / Amount of the Cyclopentenone (%) At Initial Stage: ratio of the cyclopentenone in the sample; for Amount of the Cyclopentenone (%) At Initial Stage: the rest being water and impurities
Description: In order to compare the thermostability of the freeze-dried cyclopentenone obtained in Referential Example 1 and that of the α-type crystals obtained in Example 1, quantitative determination was conducted for the cyclopentenone on the initial stage and after allowing to stand at 40° C. for six days by means of the following quantitative determination method.
Quantitative Determination Method: A sample (0.1 g) of the cyclopentenone is dissolved in 100 ml of water and 2 ml of the resulting solution are diluted to an extent of 50-fold. Absorbance (A) of this solution at the wave length of maximum absorption near the wave length of 215 nm is measured. Amount of the cyclopentenone (mg/ml) is calculated by the following formula.
Amount of the Cyclopentenone (mg/ml)=(A÷773.4)×50000

| Compound | Amount of the Cyclopentenone (%) After Standing at 40° C. for six days | Amount of the Cyclopentenone (%) At Initial Stage | Thermostability compared with the freeze-dried product (40° C. for six days, in words) |
| --- | --- | --- | --- |
| O=C1C=C[C@@H](O)[C@@H]1O (relative stereo) [Freeze-Dried Product, trans-4,5-dihydroxy-2-cyclopenten-1-one, reference compound] | 28.2% | 59.4% | – |
| O=C1C=C[C@@H](O)[C@@H]1O (relative stereo) [α-Type Crystals, trans-4,5-dihydroxy-2-cyclopenten-1-one] | 95.2% | 96.4% | significantly improved thermostability as compared with the freeze-dried product |

Reference: patent US6350917B1, “α-crystal of cyclopentenone” (Takara Shuzo Co., Ltd., priority 1997, dated 2002)
